Experimental data as given in ChEMBL document CHEMBL5725801, “Fused heterocyclic compounds as CaM kinase inhibitors” (2018).

What was measured:
[1] = CaMKII Cell-Based Activity: CaMKII activity in neonatal rat ventricular myocytes (NRVM) was measured by monitoring the phosphorylation level of phospholamban using high-content imaging. NRVMs were plated in a clear bottom 384-well plate in medium supplemented with 10% fetal bovine serum (FBS) and incubated at 37° C., 5% CO2 overnight. The medium was changed to a serum-free medium and compounds were dosed to the cells. The cells were incubated at 37° C., 5% CO2 for 4 hours and were then treated with 100 nM ATX-II (Alomone Labs) to activate CaMKII. 10 minutes after the addition of ATX-II, the cells were fixed with 4% formaldehyde followed by permeabilization with 0.1% triton X100. The fixed cells were stained with an anti-phospho-phospholamban primary antibody (Santa Cruz Biotechnology) and an Alexa488-labeled anti-rabbit IgG secondary antibody (Life Technologies Corporation) as well as Hoechst 33342 (Life Technologies Corporation). The cells were imaged using an ArrayScan VTI (Cellomics) and analyzed for cells containing a positive fluorescent signal at 485 nm, reported as % responder. The % responders were plotted against the compound concentration to determine the compounds EC50.
[2] = CaMKII delta Biochemical Assay: The biochemical activity of recombinant CaMKIIδ was measured by monitoring the phosphorylation of a target peptide using Homogenous Time Resolved Fluorescence (HTRF) technology from CisBio Bioassays. 10 pM […] (Life Technologie Corporation) was incubated for 1 hour with 110 nM calmodulin (EMD Millipore), 1 μM Biotin-STK1 (target peptide, CisBio Bioassays) and 12 μM ATP (Sigma-Aldrich) in a buffer containing 20 mM Hepes pH7.2, 10 mM MgCl2 and 1 mM CaCl2 as well as the compound to be tested or DMSO at a final concentration of 0.6%. The reaction was stopped with the addition of the detection buffer (containing EDTA) with Eu-cryptate labeled anti-phospho-STK1 antibody (CisBio Bioassays) and 125 nM XL665 labeled streptavidin (CisBio Bioassays).

SMILES | EC50 [1] | IC50 [2]
CCN1C[C@@H](F)C[C@H]1CNC(=O)c1ccnc(-c2cnn3ccc(-c4cccs4)nc23)c1 | 53.4 nM | 7.07 nM
CCN(CC)[C@@H](C)CNC(=O)c1cccc(-c2cnn3ccc(-c4cccs4)nc23)n1 | 103 nM | –
CC[C@@H](CNC(=O)c1cc(-c2cnn3ccc(-c4cccs4)nc23)nc(N2CC[C@H]2C(=O)NC)c1)N(CC)CC (single isomer, unassigned) | 37.8 nM | –
CC[C@H](CNC(=O)c1cc(-c2cnn3ccc(-c4cccs4)nc23)nc(N2CC[C@H]2C(=O)NC)c1)N(CC)CC (single isomer, unassigned) | 34.3 nM | –
